Patent publication US20240368135A1 (VERTEX PHARMACEUTICALS INCORPORATED, priority 2021, published 2024)
Like-named read-outs stand apart in the source and are kept apart here.

Target: human NaV 1.8 (Homo sapiens, UniProt Q9Y5Y9)
Test: E-VIPR assay detecting and measuring NaV inhibition properties
Type: cell-based
Conditions: HEK cells expressing truncated human NaV 1.8
Method in brief: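 HEK cells expressing truncated, fully active human NaV1.8, with KIR2.1 BacMam co-transduction, were loaded with CC2-DMPE/DiSBAC6(3) voltage-sensing dyes for 20 min at room temperature. Compounds were tested in 11-point 3-fold dilutions (300 nM top final), optionally with 25% human serum, under electrical stimulation with FRET read-out.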

[1] = in the presence of human serum (compound numbers followed by *), read-out: IC50 in the E-VIPR Assay, performed in the presence of human serum
[2] = no human serum, read-out: IC50 in the E-VIPR Assay

human NaV 1.8, sequence (Q9Y5Y9 126-399 limits assumed): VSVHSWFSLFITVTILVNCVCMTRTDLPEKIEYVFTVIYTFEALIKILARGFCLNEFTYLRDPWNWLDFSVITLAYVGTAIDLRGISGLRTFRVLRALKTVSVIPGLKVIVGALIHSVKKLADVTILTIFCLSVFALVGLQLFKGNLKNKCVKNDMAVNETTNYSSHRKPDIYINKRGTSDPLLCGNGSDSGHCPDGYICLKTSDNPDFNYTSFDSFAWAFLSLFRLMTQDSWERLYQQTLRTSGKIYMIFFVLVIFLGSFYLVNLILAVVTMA
human NaV 1.8, sequence (Q9Y5Y9 660-890 limits assumed): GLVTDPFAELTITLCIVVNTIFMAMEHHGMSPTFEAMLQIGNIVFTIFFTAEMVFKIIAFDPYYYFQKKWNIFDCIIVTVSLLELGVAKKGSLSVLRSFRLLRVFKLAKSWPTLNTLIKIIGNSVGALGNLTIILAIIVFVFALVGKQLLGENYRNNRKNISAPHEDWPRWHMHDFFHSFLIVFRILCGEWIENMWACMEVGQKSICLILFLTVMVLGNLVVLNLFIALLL
human NaV 1.8, sequence (Q9Y5Y9 1148-1722 limits assumed): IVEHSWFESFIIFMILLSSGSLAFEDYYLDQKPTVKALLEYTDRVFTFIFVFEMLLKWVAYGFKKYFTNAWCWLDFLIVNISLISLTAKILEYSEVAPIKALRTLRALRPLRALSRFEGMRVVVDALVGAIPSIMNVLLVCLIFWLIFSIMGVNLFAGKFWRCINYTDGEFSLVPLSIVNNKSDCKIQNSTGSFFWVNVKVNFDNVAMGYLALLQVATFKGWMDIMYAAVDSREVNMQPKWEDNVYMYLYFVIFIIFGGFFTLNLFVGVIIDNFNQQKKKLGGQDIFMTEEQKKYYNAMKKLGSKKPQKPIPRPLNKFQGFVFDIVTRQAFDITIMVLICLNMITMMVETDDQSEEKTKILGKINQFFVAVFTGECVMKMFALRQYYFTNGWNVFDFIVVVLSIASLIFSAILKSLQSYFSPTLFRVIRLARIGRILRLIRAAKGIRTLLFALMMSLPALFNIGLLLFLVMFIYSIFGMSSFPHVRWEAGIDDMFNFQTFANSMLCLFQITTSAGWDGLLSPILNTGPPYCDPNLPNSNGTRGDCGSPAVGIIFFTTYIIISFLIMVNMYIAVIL

Row | SMILES | IC50 [1] [nM] | IC50 [2] [nM]
1 | COc1c(C2C(C(=O)Nc3ccnc(C(O)C(C)O)c3)OC(C)(C(F)(F)F)C2C)ccc(F)c1C (single isomer, unassigned) [Compound 148] | < 10 | –
2 | COc1c(C2C(C(=O)Nc3ccnc(C(O)C(C)O)c3)OC(C)(C(F)(F)F)C2C)ccc(F)c1C (single isomer, unassigned) [Compound 149] | 100 to 1000 | –
3 | COc1c([C@@H]2[C@@H](C(=O)Nc3ccnc(N4CCN(C)CC4=O)c3)O[C@](C)(C(F)(F)F)[C@@H]2C)ccc(F)c1C(F)F (single isomer, unassigned) [Compound 163] | – | 100 to 1000
4 | COc1c([C@@H]2[C@@H](C(=O)Nc3ccc(C(F)F)nc3)O[C@](C)(C(F)(F)F)[C@@H]2C)ccc(F)c1C(F)F (single isomer, unassigned) [Compound 164] | – | ≥ 1000
5 | COc1c([C@H]2[C@H](C(=O)Nc3ccc(C(F)F)nc3)O[C@@](C)(C(F)(F)F)[C@H]2C)ccc(F)c1C(F)F (single isomer, unassigned) [Compound 165] | – | 10 to 100
6 | COc1ccc(NC(=O)[C@@H]2O[C@@](C)(C(F)(F)F)[C@@H](C)[C@H]2c2ccc(F)c(C(F)F)c2OC)cn1 (single isomer, unassigned) [Compound 167] | – | 10 to 100
7 | COc1c([C@@H]2[C@@H](C(=O)Nc3ccnc(C(=O)O)c3)O[C@](C)(C(F)(F)F)[C@@H]2C)ccc(F)c1C(F)F (single isomer, unassigned) [Compound 175] | – | 100 to 1000
8 | COc1c([C@@H]2[C@@H](C(=O)Nc3ccc(C(=O)O)nc3)O[C@](C)(C(F)(F)F)[C@@H]2C)ccc(F)c1C(F)F (single isomer, unassigned) [Compound 177] | – | ≥ 1000
9 | COc1c([C@H]2[C@H](C(=O)Nc3ccnc(OC4CCN(C)C4=O)c3)O[C@@](C)(C(F)(F)F)[C@H]2C)ccc(F)c1F (single isomer, unassigned) [Compound 198, rel-(2R*,3S*,4S*,5R*)-3-(3,4-difluoro-2-methoxyphenyl)-4,5-dimethyl-N-(2-((1-methyl-2-oxopyrrolidin-3-yl)oxy)pyridin-4-yl)-5-(trifluoromethyl)tetrahydrofuran-2-carboxamide] | – | 10 to 100
10 | COc1c([C@H]2[C@H](C(=O)Nc3ccnc([C@@H](O)[C@H](C)O)c3)O[C@@](C)(C(F)(F)F)[C@H]2C)ccc(F)c1F (single isomer, unassigned) [Compound 204, rel-(2R*,3S*,4S*,5R*)-3-(3,4-difluoro-2-methoxyphenyl)-N-(2-((1R,2S)-1,2-dihydroxypropyl)pyridin-4-yl)-4,5-dimethyl-5-(trifluoromethyl)tetrahydrofuran-2-carboxamide] | – | < 10
11 | COc1c([C@H]2[C@H](C(=O)Nc3cc(C(O)CO)ncc3C)O[C@@](C)(C(F)(F)F)[C@H]2C)ccc(F)c1F (single isomer, unassigned) [Compound 205, rel-(2R*,3S*,4S*,5R*)-3-(3,4-difluoro-2-methoxyphenyl)-N-(2-(1,2-dihydroxyethyl)-5-methylpyridin-4-yl)-4,5-dimethyl-5-(trifluoromethyl)tetrahydrofuran-2-carboxamide] | – | < 10
12 | COc1c([C@H]2[C@H](C(=O)Nc3cnnc(C(O)CO)c3)O[C@@](C)(C(F)(F)F)[C@H]2C)ccc(F)c1F (single isomer, unassigned) [Compound 206, rel-(2R*,3S*,4S*,5R*)-3-(3,4-difluoro-2-methoxyphenyl)-N-(6-(1,2-dihydroxyethyl)pyridazin-4-yl)-4,5-dimethyl-5-(trifluoromethyl)tetrahydrofuran-2-carboxamide] | 10 to 100 | –
13 | COCC(N)c1cc(NC(=O)[C@@H]2O[C@@](C)(C(F)(F)F)[C@@H](C)[C@H]2c2ccc(F)c(F)c2OC)ncn1 (single isomer, unassigned) [Compound 217] | – | 10 to 100
14 | COc1c([C@H]2[C@H](C(=O)Nc3ccnc(C4(O)CCOC4)c3)O[C@@](C)(C(F)(F)F)[C@H]2C)ccc(F)c1F (single isomer, unassigned) [Compound 220, rel-(2R*,3S*,4S*,5R*)-3-(3,4-difluoro-2-methoxyphenyl)-N-(2-(3-hydroxy-tetrahydrofuran-3-yl)pyridin-4-yl)-4,5-dimethyl-5-(trifluoromethyl)tetrahydrofuran-2-carboxamide] | – | < 10
15 | COCC(O)c1cc(NC(=O)[C@@H]2O[C@@](C)(C(F)(F)F)[C@@H](C)[C@H]2c2ccc(F)c(F)c2OC)ccn1 (single isomer, unassigned) [Compound 222, rel-(2R*,3S*,4S*,5R*)-3-(3,4-difluoro-2-methoxyphenyl)-N-(2-(1-hydroxy-2-methoxyethyl)pyridin-4-yl)-4,5-dimethyl-5-(trifluoromethyl)tetrahydrofuran-2-carboxamide] | – | < 10

More lines, now with the values ahead:

Row | IC50 [1] [nM] | IC50 [2] [nM] | SMILES
16 | – | < 10 | COc1c([C@H]2[C@H](C(=O)Nc3ccnc(N4CCN(C)CC4=O)c3)O[C@@](C)(C(F)(F)F)[C@H]2C)ccc(F)c1C(F)F (single isomer, unassigned) [Compound 162]
17 | – | < 10 | COc1c(C2C(C(=O)Nc3ccnc(C(=O)O)c3)OC(C)(C(F)(F)F)C2C)ccc(F)c1C(F)F (single isomer, unassigned) [Compound 174]
18 | – | < 10 | COc1c([C@H]2[C@H](C(=O)Nc3ccc(C(=O)O)nc3)O[C@@](C)(C(F)(F)F)[C@H]2C)ccc(F)c1C(F)F (single isomer, unassigned) [Compound 176]
19 | – | < 10 | COc1c([C@H]2[C@H](C(=O)Nc3ccnc(OC4CCN(C)C4=O)c3)O[C@@](C)(C(F)(F)F)[C@H]2C)ccc(F)c1F (single isomer, unassigned) [Compound 197, rel-(2R*,3S*,4S*,5R*)-3-(3,4-difluoro-2-methoxyphenyl)-4,5-dimethyl-N-(2-((1-methyl-2-oxopyrrolidin-3-yl)oxy)pyridin-4-yl)-5-(trifluoromethyl)tetrahydrofuran-2-carboxamide]
20 | – | < 10 | COc1c([C@H]2[C@H](C(=O)Nc3cc(C(O)CO)ncc3F)O[C@@](C)(C(F)(F)F)[C@H]2C)ccc(F)c1F (single isomer, unassigned) [Compound 199, rel-(2R*,3S*,4S*,5R*)-3-(3,4-difluoro-2-methoxyphenyl)-N-(2-(-1,2-dihydroxyethyl)-5-fluoropyridin-4-yl)-4,5-dimethyl-5-(trifluoromethyl)tetrahydrofuran-2-carboxamide]
21 | – | < 10 | COc1c([C@H]2[C@H](C(=O)Nc3ccnc(C(C)(O)CO)c3)O[C@@](C)(C(F)(F)F)[C@H]2C)ccc(F)c1F (single isomer, unassigned) [Compound 202, rel-(2R*,3S*,4S*,5R*)-3-(3,4-difluoro-2-methoxyphenyl)-N-(2-(1,2-dihydroxypropan-2-yl)pyridin-4-yl)-4,5-dimethyl-5-(trifluoromethyl)tetrahydrofuran-2-carboxamide]
22 | – | < 10 | COc1c([C@H]2[C@H](C(=O)Nc3ccnc([C@H](O)[C@@H](C)O)c3)O[C@@](C)(C(F)(F)F)[C@H]2C)ccc(F)c1F (single isomer, unassigned) [Compound 203, rel-(2R*,3S*,4S*,5R*)-3-(3,4-difluoro-2-methoxyphenyl)-N-(2-((1S,2R)-1,2-dihydroxypropyl)pyridin-4-yl)-4,5-dimethyl-5-(trifluoromethyl)tetrahydrofuran-2-carboxamide]
